From ChEMBL document CHEMBL2074489, “Human organic anion transporter 3 (hOAT3) can operate as an exchanger and mediate secretory urate flux” (Cell Physiol Biochem, 2003)

These molecules were tested against T1, Organic anion transporter 3 (Homo sapiens, UniProt Q8TCC7) (assay: TP_TRANSPORTER: inhibition of Estrone sulfate in Xenopus laevis oocytes). Conditions: not given.
T1 sequence (Q8TCC7 whole entry): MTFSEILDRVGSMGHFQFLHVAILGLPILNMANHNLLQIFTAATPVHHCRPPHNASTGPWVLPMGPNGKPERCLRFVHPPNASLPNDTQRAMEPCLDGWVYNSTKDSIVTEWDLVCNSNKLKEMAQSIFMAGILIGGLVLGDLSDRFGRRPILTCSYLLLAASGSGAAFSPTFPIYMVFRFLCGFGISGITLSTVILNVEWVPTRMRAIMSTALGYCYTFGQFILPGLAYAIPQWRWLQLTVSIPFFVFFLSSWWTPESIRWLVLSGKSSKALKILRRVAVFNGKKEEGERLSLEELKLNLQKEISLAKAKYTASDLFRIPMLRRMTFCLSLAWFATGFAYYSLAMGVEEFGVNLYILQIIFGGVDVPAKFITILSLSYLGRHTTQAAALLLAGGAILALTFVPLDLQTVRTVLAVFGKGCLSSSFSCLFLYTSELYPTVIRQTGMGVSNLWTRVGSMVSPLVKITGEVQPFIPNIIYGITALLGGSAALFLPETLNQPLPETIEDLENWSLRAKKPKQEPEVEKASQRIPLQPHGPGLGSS
Format: functional, cell-based, Oocyte

| SMILES | Ki |
| --- | --- |
| O=c1[nH]c(=O)c2[nH]c(=O)[nH]c2[nH]1 [URIC ACID] | 275 µM |

What follows are molecules tested against T1, Organic anion transporter 3 (assay: TP_TRANSPORTER: trans-stimulation in Xenopus laevis oocytes). Conditions: oocyte.
Format: functional, cell-based

| SMILES | Activity |
| --- | --- |
| O=C(O)CCC(=O)C(=O)O [ALPHA-KETOGLUTARIC ACID] | substrate [] |
| Nc1ccc(C(=O)NCC(=O)O)cc1 [AMINOHIPPURIC ACID] | substrate [] |
| CN/C(=N/CCSCc1nc[nH]c1C)NC#N [CIMETIDINE] | substrate [] |
| O=C(O)CCCC(=O)O [GLUTARATE] | substrate [] |
| O=c1[nH]c(=O)c2[nH]c(=O)[nH]c2[nH]1 [URIC ACID] | substrate [] |
